Experimental data taken from publication PMC8066331, “Anticancer Activity of Triazolo-Thiadiazole Derivatives and Inhibition of AKT1 and AKT2 Activation” (Pharmaceutics, 2021).
Like-named read-outs stand apart in the source and are kept apart here.

How the values were obtained:
PC-3 = test: MTT in vitro antiproliferative assay, PC-3; format: cell-based; conditions: Homo sapiens; for IC (TGI): read-out: TGI
Text: (§1) The in vitro antiproliferative activities of the novel triazolo[3,4-b]thiadiazole derivatives were estimated in ten well-established human cancer cell lines including three ovarian (SKOV-3, UWB 1.289, and UWB 1.289+BRCA1), five colorectal adenocarcinoma (DLD-1, HT-29, LS174T, LoVo, and SW403), and two prostate cancer cell lines (PC-3 and DU-145). All cancer cell lines were obtained from the American Type Culture Collection (ATCC) and cultivated in different culture media according to the instructions. The required growth mediums were supplemented with 10% fetal bovine serum and 1% streptomycin/penicillin. All cancer cell lines were cultured as monolayers and maintained at 37 °C, 5% CO2 in humidified air.
(§2) Stock solutions of all tested compounds were prepared by dissolving the required amount of substances in the DMSO solvent to reach the desired concentration of 15 mM.
(§3) To evaluate the in vitro antiproliferative activity of the triazolo[3,4-b]thiadiazole derivatives, 3-(4,5-dimethylthiazol-2-yl)-2,5-diphenyltetrazolium bromide (MTT) assay was assessed. According to the protocol, cells were firstly seeded into a 96-well plate at a density of 8 × 10^3 cells and grown for 24 h at 37 °C, 5% CO2 in humidified air. Subsequently, cells were treated with the tested compounds in a specific range of drug concentrations (1–100 μΜ). Following 48 h of drug exposure, the culture media were discarded and replaced with 100 μL of fresh medium. Afterwards, 50 μL of dissolved MTT in phosphate-buffered saline (PBS) solution (5 mg/mL) were added in each well and cells were incubated for 3 h at 37 °C, 5% CO2 in humidified air. Incubation time was followed by MTT discard and the addition of 100 μL of DMSO solvent so that the formazan crystals could be dissolved. The absorbance of the converted dye was immediately measured at a wavelength of 540 nm on an ELISA reader (VersaMax Microplate Reader, Orleans, CA, USA).
(§4) The in vitro anticancer effect of a tested compound on cell viability was determined by three dose–response parameters termed GI50, TGI, and IC50. More specifically, the GI50 value indicates the required concentration of the compound that impels 50% cell growth inhibition, the TGI value corresponds to the concentration that induces 100% cell growth inhibition, and the IC50 value is the concentration that causes 50% cell death. The two parameters GI50 and TGI represent the cytostatic activity, whereas IC50 reflects the cytotoxic effect of a drug. To estimate the three parameters, nine absorbance measurements were required including control 24 h (Ct24), control 72 h (Ct72), and the mean of cell survival in all seven drug concentrations (Tt72). The percentage growth inhibition was calculated according to National Cancer Institute’s (NCI) protocol: [(Tt72x) − (Ct24)/(Ct72) − (Ct24)] × 100 for concentrations for which Tt72x > Ct24 and [(Tt72x) − (Ct24)/Ct24] × 100 for concentrations for which Tt72x < Ct24. GI50 was calculated from [(Tt72x) − (Ct24)/(Ct72) − (Ct24)] × 100 = 50, TGI was calculated from [(Tt72x) − (Ct24)/(Ct72) − (Ct24)] × 100 = 0, and IC50 was calculated from [(Tt72x) − (Ct24)/Ct24] × 100 = 50. All the experiments were carried out in triplicate.

SKOV-3 = test: MTT in vitro antiproliferative assay, SKOV-3; format: cell-based; conditions: Homo sapiens; for IC (TGI): read-out: TGI
Text: as §1, §2, §3, §4

HT-29 = test: MTT in vitro antiproliferative assay, HT-29; format: cell-based, human
Text: as §1, §2, §3, §4

DLD-1 = test: MTT in vitro antiproliferative assay, DLD-1; format: cell-based, human; conditions: DLD-1, MTT
Text: as §1, §2, §3, §4

DU-145 = test: MTT in vitro antiproliferative assay, DU-145; format: cell-based, human
Text: as §1, §2, §3, §4

[1] = PC-3, MTT, 48 h, 50% cell death, read-out: IC50
[2] = PC-3, MTT, 48 h drug exposure, read-out: GI50
[3] = SK-OV-3, SKOV-3, MTT, 48 h, concentration causing 50% cell death, read-out: IC50
[4] = SK-OV-3, SKOV-3, MTT, 48 h drug exposure, read-out: GI50
[5] = SK-OV-3, SKOV-3, MTT, 48 h drug exposure

GI50 (PC-3; [2])	GI50 (SKOV-3; [4])	SMILES	IC50 (PC-3; [1])	IC (TGI) (PC-3; PC-3, MTT, 48 h drug exposure)	IC50 (SKOV-3; [3])	IC (TGI) (SKOV-3; [5])	also measured
50 ± 0.5 µM	80 ± 0.5 µM	CCN(CC)S(=O)(=O)c1cc(OC)c(OC)cc1Cc1nnc2sc(-c3ccc([N+](=O)[O-])cc3)nn12 [Compound 6d, N,N-diethyl-4,5-dimethoxy-2-((6-(4-nitrophenyl)-[1,2,4]triazolo[3,4-b][1,3,4]thiadiazol-3-yl)methyl)benzenesulfonamide]	> 100 µM	> 100 µM	> 100 µM	> 100 µM	
30 ± 0.5 µM	> 100 µM	CCN(CC)S(=O)(=O)c1cc(OC)c(OC)cc1Cc1nnc2sc(/C=C/c3ccc([N+](=O)[O-])cc3)nn12 [Compound 9d, (E)-N,N-diethyl-4,5-dimethoxy-2-((6-(4-nitrostyryl)-[1,2,4]triazolo[3,4-b][1,3,4]thiadiazol-3-yl)methyl)benzenesulfonamide]	> 100 µM	> 100 µM	> 100 µM	> 100 µM	
38 ± 2 µM	> 100 µM	CCN(CC)S(=O)(=O)c1cc(OC)c(OC)cc1Cc1nnc2sc(/C=C/c3cccc([N+](=O)[O-])c3)nn12 [Compound 9c, (E)-N,N-diethyl-4,5-dimethoxy-2-((6-(3-nitrostyryl)-[1,2,4]triazolo[3,4-b][1,3,4]thiadiazol-3-yl)methyl)benzenesulfonamide]	> 100 µM	> 100 µM	> 100 µM	> 100 µM	
32 ± 0.4 µM	36 ± 0.1 µM	CCN(CC)S(=O)(=O)c1cc(OC)c(OC)cc1Cc1nnc2sc(-c3ccc(Cl)cc3)nn12 [Compound 6b, 2-((6-(4-chlorophenyl)-[1,2,4]triazolo[3,4-b][1,3,4]thiadiazol-3-yl)methyl)-N,N-diethyl-4,5-dimethoxybenzenesulfonamide]	104 ± 0.8 µM	56 ± 0.6 µM	> 100 µM	60 ± 0.8 µM	
		COc1cc(Cc2nnc3sc(-c4cc([N+](=O)[O-])ccc4[N+](=O)[O-])nn23)c(S(=O)(=O)N(C(C)C)C(C)C)cc1OC [Compound 7d, 2-((6-(2,5-dinitrophenyl)-[1,2,4]triazolo[3,4-b][1,3,4]thiadiazol-3-yl)methyl)-N,N-diisopropyl-4,5-dimethoxybenzenesulfonamide]					TGI (HT-29; HT-29, MTT, 48 h drug exposure): 26 ± 1.52 μΜ; GI50 (HT-29; Homo sapiens, HT-29, 48 h): 17.9 ± 2.51 µM; IC50 (HT-29; Homo sapiens, HT-29, 48 h): 40 ± 1 µM; GI50 (PC-3; PC-3, 48 h): 8 ± 1 µM; IC50 (PC-3; PC-3, 48 h): 22 ± 0.3 µM; IC (TGI) (PC-3; PC-3, 48 h): 11 ± 1.04 µM; GI50 (SKOV-3; SK-OV-3, 48 h): 13 ± 0.5 µM; IC50 (SKOV-3; SK-OV-3, 48 h): 23 ± 1.4 µM; IC (TGI) (SKOV-3; SK-OV-3, 48 h): 17 ± 1 µM; TGI (DLD-1; 48 h drug exposure): 12 ± 0.5 μΜ; IC50 (DLD-1; Homo sapiens, 48 h, 50% cell death): 22 ± 1 µM; GI50 (DLD-1; Homo sapiens, 48 h drug exposure): 7.3 ± 0.75 µM; TGI (DU-145; DU-145, MTT, 48 h drug exposure): 14 ± 0.5 μΜ; GI50 (DU-145; Homo sapiens, DU-145, 48 h): 6.8 ± 0.8 µM; IC50 (DU-145; Homo sapiens, DU-145, 48 h): 21.3 ± 0.9 µM
90 ± 2 µM	> 100 µM	CCN(CC)S(=O)(=O)c1cc(OC)c(OC)cc1Cc1nnc2sc(-c3ccc(F)cc3)nn12 [Compound 6c, N,N-diethyl-2-((6-(4-fluorophenyl)-[1,2,4]triazolo[3,4-b][1,3,4]thiadiazol-3-yl)methyl)-4,5-dimethoxybenzenesulfonamide]	> 100 µM	> 100 µM	> 100 µM	> 100 µM	
20 ± 0.8 µM	16 ± 0.8 µM	COc1cc(Cc2nnc3sc(-c4cccc(Cl)c4)nn23)c(S(=O)(=O)N(C(C)C)C(C)C)cc1OC [Compound 7a, 2-((6-(3-chlorophenyl)-[1,2,4]triazolo[3,4-b][1,3,4]thiadiazol-3-yl)methyl)-N,N-diisopropyl-4,5-dimethoxybenzenesulfonamide]	> 100 µM	> 100 µM	> 100 µM	46 ± 1.5 µM	
11 ± 1 µM	84 ± 2 µM	CCN(CC)S(=O)(=O)c1cc(OC)c(OC)cc1Cc1nnc2sc(/C=C/c3ccc(Cl)cc3)nn12 [Compound 9a, (E)-2-((6-(4-chlorostyryl)-[1,2,4]triazolo[3,4-b][1,3,4]thiadiazol-3-yl)methyl)-N,N-diethyl-4,5-dimethoxybenzenesulfonamide]	> 100 µM	> 100 µM	> 100 µM	> 100 µM	
42 ± 1 µM	> 100 µM	CCN(CC)S(=O)(=O)c1cc(OC)c(OC)cc1Cc1nnc2sc(/C=C/c3ccc(F)cc3)nn12 [Compound 9b, (E)-N,N-diethyl-2-((6-(4-fluorostyryl)-[1,2,4]triazolo[3,4-b][1,3,4]thiadiazol-3-yl)methyl)-4,5-dimethoxybenzenesulfonamide]	> 100 µM	> 100 µM	> 100 µM	> 100 µM	
25 ± 0.5 µM	80 ± 0.8 µM	COc1cc(Cc2nnc3sc(-c4ccc(F)cc4)nn23)c(S(=O)(=O)N(C(C)C)C(C)C)cc1OC [Compound 7b, 2-((6-(4-fluorophenyl)-[1,2,4]triazolo[3,4-b][1,3,4]thiadiazol-3-yl)methyl)-N,N-diisopropyl-4,5-dimethoxybenzenesulfonamide]	> 100 µM	80 ± 1 µM	> 100 µM	> 100 µM	
31 ± 1.1 µM	50 ± 2 µM	COc1cc(Cc2nnc3sc(/C=C/c4ccc(F)cc4)nn23)c(S(=O)(=O)N(C(C)C)C(C)C)cc1OC [Compound 10b, (E)-2-((6-(4-fluorostyryl)-[1,2,4]triazolo[3,4-b][1,3,4]thiadiazol-3-yl)methyl)-N,N-diisopro-pyl-4,5-dimethoxybenzenesulfonamide]	> 100 µM	> 100 µM	> 100 µM	> 100 µM	
25 ± 1.4 µM	6 ± 0.3 µM	CCN(CC)S(=O)(=O)c1cc(OC)c(OC)cc1Cc1nnc2sc(-c3cccc(Cl)c3)nn12 [Compound 6a, 2-((6-(3-chlorophenyl)-[1,2,4]triazolo[3,4-b][1,3,4]thiadiazol-3-yl)methyl)-N,N-diethyl-4,5-dimethoxybenzenesulfonamide]	> 100 µM	112 ± 2.5 µM	> 100 µM	14 ± 2.5 µM	
2 ± 0.5 µM	76 ± 6 µM	COc1cc(Cc2nnc3sc(/C=C/c4ccc(Cl)cc4)nn23)c(S(=O)(=O)N(C(C)C)C(C)C)cc1OC [Compound 10a, (E)-2-((6-(4-chlorostyryl)-[1,2,4]triazolo[3,4-b][1,3,4]thiadiazol-3-yl)methyl)-N,N-diisopro-pyl-4,5-dimethoxybenzenesulfonamide]	> 100 µM	84 ± 2 µM	> 100 µM	> 100 µM	
23 ± 0.8 µM	15 ± 1.4 µM	COc1cc(Cc2nnc3sc(-c4ccc([N+](=O)[O-])cc4)nn23)c(S(=O)(=O)N(C(C)C)C(C)C)cc1OC [Compound 7c, N,N-diisopropyl-4,5-dimethoxy-2-((6-(4-nitrophenyl)-[1,2,4]triazolo[3,4-b][1,3,4]thiadiazol-3-yl)methyl)benzenesulfonamide]	> 100 µM	102 ± 1.2 µM	66 ± 2.5 µM	28 ± 2.2 µM	
